From US11066414B2, “Cot modulators and methods of use thereof” (Gilead Sciences, Inc., priority 2015, dated 2021)
Where two headings read alike, the source gives them in different places.

Key:
Human Cot = Human Cot (Homo sapiens (Human), UniProt P41279); test: High Throughput Cot Biochemical Assay
TNFα = test: Cot Monocyte TNFα Cell Based Assay
[1] = read-out: IC50 HTRF, Cot HTRF (TR-FRET KinEASE) biochemical assay, 400 μM ATP
[2] = read-out: EC50 TNF, LPS-stimulated human monocytes, TNFα TR-FRET
[3] = IC50 HTRF, Cot HTRF (TR-FRET) biochemical assay
[4] = Homo sapiens, Monocyte, read-out: EC50 TNF, LPS-stimulated human monocytes, TNFα
[5] = IC50 HTRF, Cot HTRF (TR-FRET KinEASE) biochemical assay, 400 μM ATP
[6] = Homo sapiens, Monocyte, read-out: EC50 TNF, LPS-stimulated human monocytes, TNFα TR-FRET
[7] = read-out: IC50 HTRF, Cot HTRF (TR-FRET) biochemical assay
[8] = read-out: EC50 TNF, LPS-stimulated human monocytes, TNFα

Human Cot, sequence (P41279 30-397): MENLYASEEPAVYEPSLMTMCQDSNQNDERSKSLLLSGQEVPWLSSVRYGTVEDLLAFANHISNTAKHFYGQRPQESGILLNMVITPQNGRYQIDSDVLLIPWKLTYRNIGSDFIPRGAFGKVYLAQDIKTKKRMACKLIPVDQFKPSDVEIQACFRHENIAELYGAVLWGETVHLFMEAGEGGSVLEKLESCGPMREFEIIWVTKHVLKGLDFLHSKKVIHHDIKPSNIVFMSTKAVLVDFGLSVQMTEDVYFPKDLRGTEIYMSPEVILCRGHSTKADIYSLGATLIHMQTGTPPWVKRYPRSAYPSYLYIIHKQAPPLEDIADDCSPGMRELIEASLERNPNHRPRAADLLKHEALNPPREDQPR

Compound: Cc1nnc(C2(n3cc([C@@H](Nc4cc(C#N)c5ncc(C#N)c(NCC(C)(C)C)c5c4)c4ccc(F)nc4C)nn3)CC2)o1 [Example 907, (S)-6-(((6-fluoro-2-methylpyridin-3-yl)(1-(1-(5-methyl-l,3,4-oxadiazol-2-yl)cyclopropyl)-1H-1,2,3-triazol-4-yl)methyl)amino)-4-(neopentylamino)quinoline-3,8-dicarbonitrile]
- IC50 (Human Cot; [1]): 4 nM
- EC50 (TNFα; [2]): 51 nM

Compound: N#Cc1csc([C@H](Nc2cc(Cl)c3ncc(C#N)c(Nc4ccc(F)c(Cl)c4)c3c2)c2cn(Cc3ccccn3)nn2)c1 [Example 317, (R)-8-chloro-4-((3-chloro-4-fluorophenyl)amino)-6-(((4-cyano-thiophen-2-yl)(1-(pyridin-2-ylmethyl)-1H-1,2,3-triazol-4-yl)methyl)-amino)quinoline-3-carbonitrile]
- IC50 (Human Cot; [3]): 16 nM
- EC50 (TNFα; [4]): 251 nM

Compound: CC(C)(C)CNc1c(C#N)cnc2c(C#N)cc(N[C@@H](c3ccc4cccnc4c3)c3cn(C4(C(F)F)CC4)nn3)cc12 [Example 818, (S)-6-(((1-(1-(difluoromethyl)-cyclopropyl)-1H-1,2,3-triazol-4-yl)(quinolin-7-yl)methyl)amino)-4-(neopentylamino)quinoline-3,8-dicarbonitrile]
- IC50 (Human Cot; [5]): 6 nM
- EC50 (TNFα; [6]): 176 nM

Compound: CCc1ncccc1[C@H](Nc1cc(C#N)c2ncc(C#N)c(NCC(C)(C)C)c2c1)c1cn(C2(C(F)F)CC2)nn1 [Example 606, (S)-6-(((1-{1-(difluoromethyl)-cyclopropyl)-1H-1,2,3-triazol-4-yl)(2-ethylpyridin-3-yl)methyl)amino)-4-(neopentylamino)quinoline-3,8-dicarbonitrile]
- IC50 (Human Cot; [3]): 2 nM
- EC50 (TNFα; [4]): 27 nM

Compound: N#Cc1cnc2c(Cl)cc(N[C@@H](c3cccnc3)c3c[nH]nn3)cc2c1N[C@H](CCO)c1ccccc1 [Example 179, 8-chloro-4-(((R)-3-hydroxy-1-phenylpropyl)amino)-6-(((S)-pyridin-3-yl(1H-1,2,3-triazol-4-yl)methyl)amino)quinoline-3-carbonitrile]
- IC50 (Human Cot; [3]): 265 nM
- EC50 (TNFα; [4]): > 10000 nM

Compound: Cc1nc(F)ccc1[C@H](Nc1cc(Cl)c2ncc(C#N)c(NCC(C)(C)C)c2c1)c1cn(C2(C)CC2)nn1 [Example 480, (S)-8-chloro-6-(((6-fluoro-2-methylpyridin-3-yl)(1-(1-methylcyclopropyl)-1H-1,2,3-triazol-4-yl)methyl)amino)-4-(neopentylamino)-quinoline-3-carbonitrile]
- IC50 (Human Cot; [3]): 2 nM
- EC50 (TNFα; [4]): 60 nM

Compound: Cc1ncccc1[C@H](Nc1cc(Cl)c2ncc(C#N)c(Nc3cnc(F)c(F)c3)c2c1)c1c[nH]nn1 [Example 173, (S)-8-chloro-4-((5,6-difluoropyridin-3-yl)amino)-6-(((2-methylpyridin-3-yl)(1H-1,2,3-triazol-4-yl)methyl)amino)quinoline-3-carbonitrile]
- IC50 (Human Cot; [3]): 7 nM
- EC50 (TNFα; [4]): 1110 nM

Compound: CC(C)(C)CNc1c(C#N)cnc2c(Cl)cc(N[C@H](c3cn(C4CC4)nn3)c3cccn4nccc34)cc12 [Example 422, (S)-8-chloro-6-(((1-cyclopropyl-1H-1,2,3-triazol-4-yl)(pyrazolo[1,5-a]pyridin-4-yl)methyl)amino)-4-(neopentylamino)-quinoline-3-carbonitrile]
- IC50 (Human Cot; [3]): 2 nM
- EC50 (TNFα; [4]): 57 nM

Compound: N#CCCC(Nc1c(C#N)cnc2c(Cl)cc(N[C@H](c3cn(C4[C@H]5CN(C6COC6)C[C@@H]45)nn3)c3csc4c3CCN(C3COC3)C4)cc12)c1ccccc1 (stereo partly drawn) [Example 82, 8-chloro-4-((3-cyano-1-phenylpropyl)amino)-6-(((S)-(1-((1R,5S,6r)-3-(oxetan-3-yl)-3-azabicyclo[3.1 0]hexan-6-yl)-1H-1,2,3-triazol-4-yl)(6-(oxetan-3-yl)-4,5,6,7-tetrahydrothieno[2,3-c]pyridin-3-yl)methyl)amino)-quinoline-3-carbonitrile]
- IC50 (Human Cot; [7]): 2 nM
- EC50 (TNFα; [8]): 151 nM

Compound: Cc1nc(F)ccc1[C@H](Nc1cc(C#N)c2ncc(C#N)c(NCC(C)(C)C)c2c1)c1cn(C2(C(N)=O)CC2)nn1 [Example 490, (S)-1-(4-(((3,8-dicyano-4-(neopentylamino)-quinolin-6-yl)amino)(6-fluoro-2-methylpyridin-3-yl)methyl)-1H-1,2,3-triazol-1-yl)cyclopropane-1-carboxamide]
- IC50 (Human Cot; [3]): 1 nM
- EC50 (TNFα; [4]): 1000 nM

Compound: CC(C)(C)CNc1c(C#N)cnc2c(Cl)cc(N[C@H](c3cn(C(C)(C)CF)nn3)c3cccc4ncccc34)cc12 [Example 694, (S)-8-chloro-6-(((1-(1-fluoro-2-methylpropan-2-yl)-1H-1,2,3-triazol-4-yl)(quinolin-5-yl)methyl)amino)-4-(neopentylamino)quinoline-3-carbonitrile]
- IC50 (Human Cot; [3]): 7 nM
- EC50 (TNFα; [4]): 84 nM

Compound: CC(C)(C)CNc1c(C#N)cnc2c(Cl)cc(N[C@H](c3cn(C4(C(F)F)CC4)nn3)c3cccc4c(=O)[nH]ccc34)cc12 [Example 765, (S)-8-chloro-6-(((1-(1-(difluoromethyl)cyclopropyl)-1H-1,2,3-triazol-4-yl)(1-oxo-1,2-dihydroisoquinolin-5-yl)methyl)amino)-4-(neopentylamino)quinoline-3-carbonitrile]
- IC50 (Human Cot; [3]): 4 nM
- EC50 (TNFα; [4]): 131 nM

Compound: Cc1nc(F)ccc1[C@H](Nc1cc(C#N)c2ncc(C#N)c(NCC(C)(C)C(F)(F)F)c2c1)c1cn(C2(C(F)F)CC2)nn1 [Example 832, (S)-6-(((1-(l-(difluoromethyl)-cyclopropyl)-1H-1,2,3-triazol-4-yl)(6-fluoro-2-methylpyridin-3-yl)methyl)amino)-4-((3,3,3-trifluoro-2,2-dimethylpropyl)amino)quinoline-3,8-dicarbonitrile]
- IC50 (Human Cot; [1]): 2 nM
- EC50 (TNFα; [2]): 44 nM

Compound: CC[C@@H](Nc1c(C#N)cnc2c(Cl)cc(N[C@@H](c3cccnc3)c3cn([C@H]4[C@@H]5CNC[C@@H]54)nn3)cc12)c1ccccc1 [Example 180, 6-(((S)-(1-((• R,5S,6s)-3-azabicyclo[3.1 0]hexan-6-yl)-1H-1,2,3-triazol-4-yl)(pyridin-3-yl)methyl)amino)-8-chloro-4-(((R)-1-phenylpropyl)amino)-quinoline-3-carbonitrile]
- IC50 (Human Cot; [7]): 1 nM
- EC50 (TNFα; [8]): 104 nM

Compound: Cn1ccc2c([C@H](Nc3cc(C#N)c4ncc(C#N)c(NCC(C)(C)C(F)(F)F)c4c3)c3cn(C4(C)CC4)nn3)cccc2c1=O [Example 884, (S)-6-(((2-methyl-1-oxo-1,2-dihydroisoquinolin-5-yl)(1-(1-methylcyclopropyl)-1H-1,2,3-triazol-4-yl)methyl)amino)-4-((3,3,3-trifluoro-2,2-dimethylpropyl)amino)q uin oline-3,8-dicarbonitrile]
- IC50 (Human Cot; [5]): 1 nM
- EC50 (TNFα; [6]): 19 nM

Compound: Cn1ccc2c([C@H](Nc3cc(C#N)c4ncc(C#N)c(NCC(C)(C)C)c4c3)c3cn(C4(C)COC4)nn3)cccc2c1=O [Example 853, (S)-6-(((2-methyl-1-oxo-1,2-dihydroisoquinolin-5-yl)(1-(3-methyloxetan-3-yl)-1H-1,2,3-triazol-4-yl)methyl)amino)-4-(neopentylamino)quinoline-3,8-dicarbonitrile]
- IC50 (Human Cot; [5]): 1 nM
- EC50 (TNFα; [6]): 98 nM

Compound: Cc1ccc2c([C@H](Nc3cc(C#N)c4ncc(C#N)c(NCC(C)(C)C)c4c3)c3cn(C4(C)CC4)nn3)cccc2n1 [Example 902]
- IC50 (Human Cot; [1]): 3 nM
- EC50 (TNFα; [2]): 36 nM
